# Earlier results, collected in patent US11135586B2, “Fluorinated pickering emulsion” (The Board of Trustees of the Leland Stanford Junior …, priority 2014, dated 2021).
smiles,measurement,value
O=C1OC2(c3ccc(O)cc3Oc3cc(O)ccc32)c2ccccc21 [fluorescein],Time without leakage in drops stabilized by surfactants,at least 36 hours
